Experimental data: patent EP0603030A2, “Antiviral antibiotic BU-4628V and preparation thereof” (Bristol-Myers Squibb Company, priority 1992, dated 1994)
Like-named read-outs stand apart in the source and are kept apart here. Positions of bridges follow the written chain, without caps; N, C: chain ends. Residues, ends and D or L forms follow the SMILES beside them.

What was measured:
[1] = tested on: Vero cell; test: Cytotoxicity in Vero cells without virus infection; type: cell-based; details: Vero cells in the absence of virus, 72 hours at 37°C; 50% growth inhibition
Method: (§1) The in vitro antiviral activity of BU-4628V was assessed against the herpes simplex virus type 1 (HSV-1) using the KOS strain. The assay was done according to the reported protocol of C. McLaren et al. in Antiviral Research, 3, 223-234, (1986) with minor modification. Briefly, 50 µl of Eagle's MEM medium containing BU-4628V and then 200 µl of the Vero cell suspension (2 X 10⁴ cells/200 µl) were added to a well of a 96-well microtiter plate. To the well, 50µl of medium containing approximately 30 times of the 50% tissue culture infectious dose (50% TCID) of virus was added. In a parallel experiment, the same set of cells without virus infection was prepared, which was for the determination of cytotoxicity of the sample. After 72 hours incubation at 37°C, the inhibition degree of virus-induced cytopathic effect and cytotoxicity by the sample were determined, respectively. The ID₅₀ is expressed as the concentration of a compound showing 50% growth inhibition of the cytopathic effect and the TD₅₀ as the concentration of a compound showing 50% growth inhibition of the cells in the absence of virus. Acyclovir was used as the reference compound for anti-HSV activity in the assay.

[2] = tested on: herpes simplex virus type 1 (HSV-1); test: Anti-HSV activity, inhibition of virus-induced cytopathic effect in Vero cells; type: cell-based; details: HSV-1 KOS strain, 72 hours at 37°C, 50% inhibition of cytopathic effect
Method: as §1

[3] = tested on: HIV-1 IIIb; test: Anti-HIV activity, XTT assay in CEM-SS cells; type: cell-based, human immunodeficiency virus; details: HIV-1 IIIb strain, read-out: IC₅₀
Source text: (§2) The antiviral effect is expressed as the inhibitory concentration of a compound which reduces the number of viruses of the infected culture to 50% of that of the drug - untreated, control culture (IC₅₀). The cytotoxicity is expressed as the concentration of a compound which yields 50% of the number of viable cells of the untreated control cultures (IC₅₀).

[4] = Cytotoxicity in Vero cells without virus infection; type: cell-based; details: Vero cells in the absence of virus, 72 hours at 37°C, 50% growth inhibition, read-out: TD₅₀
Method: as §1

[5] = tested on: HIV-1 RF; test: Anti-HIV activity, XTT assay in CEM-SS cells; type: cell-based, human immunodeficiency virus; details: HIV-1 RF strain, read-out: IC₅₀
Source text: as §2

[6] = tested on: CEM-SS cells; test: Cytotoxicity in CEM-SS cells (XTT assay); type: cell-based; details: result in words
Source text: as §2

[7] = Cytotoxicity in CEM-SS cells (XTT assay); type: cell-based; details: human, concentration yielding 50% of viable cells of untreated control, read-out: cytotoxicity IC₅₀
Source text: as §2

[8] = Solubility in solvents; type: physicochemical
Source text: The antiviral antibiotic BU-4628V was isolated as a white amorphous powder.

[9] = tested on: S. typhi 901; type: cell-based; details: 901, 18 h, pH 7
[10] = tested on: HIV-2 CBL-20; test: Anti-HIV activity, XTT assay in CEM-SS cells; type: cell-based, human immunodeficiency virus; details: HIV-2 CBL-20 strain, read-out: IC₅₀
Source text: The antiviral effect is expressed as the inhibitory concentration of a compound which reduces the number of viruses of the infected culture to 50% of that of the drug - untreated, control culture (IC₅₀).

[11] = tested on: human immunodeficiency virus; test: Anti-HIV activity, XTT assay in CEM-SS cells (strain not stated); type: cell-based; details: Human immunodeficiency virus 1, read-out: IC₅₀
[12] = tested on: CEM-SS cells
Source text: as §2

For `Nc1nc2c(ncn2COCCO)c(=O)[nH]1` [Acyclovir], the TD₅₀ [1] was over 100 µg/mL and the ID₅₀ [2] was 0.23 µg/mL.
Compound `CC[C@H](C)[C@@H]1NC(=O)CNC(=O)[C@H](CC(C)C)NC(=O)[C@@H]2CSSC[C@@H]3NC(=O)CNC(=O)[C@H](C)NC(=O)[C@H](Cc4ccccc4)NC(=O)[C@H](CC(=O)N2)NC(=O)[C@H](CC(N)=O)NC(=O)[C@H](CSSC[C@@H](C(=O)N[C@@H](Cc2ccccc2)C(=O)N[C@@H](Cc2c[nH]c4ccccc24)C(=O)O)NC(=O)[C@H](C(C)C)NC(=O)[C@H]([C@@H](C)CC)NC(=O)[C@H](C)NC(=O)[C@H](Cc2ccc(O)cc2)NC(=O)CNC3=O)NC(=O)[C@H](CO)NC(=O)CNC1=O` [BU-4628V] (CLGIGSCNDFAGCGYAIVCFW-OH; disulfide 1-13, 7-19; lactam N-9; C-terminus assumed) has an IC50 [3] of 920 nM, a CC50 at 72 h [4] of over 100 µg/mL and an IC50 [5] of 140 nM. For the same compound, the cytotoxicity [6] was “very weak cytotoxicity”, the CC50 [7] was 26000 to 46000 nM and the ID₅₀ [2] was 27 µg/mL. The solubility ([8]; in alkaline water) was “slightly soluble”, the solubility ([8]; in benzene) was “insoluble” and the solubility ([8]; in chloroform) was “insoluble”. For the same compound, the solubility ([8]; in dimethyl sulfoxide) was “soluble”, the solubility ([8]; in dimethylformamide) was “soluble” and the solubility ([8]; in ethanol) was “soluble”. For the same compound, the solubility ([8]; in ethyl acetate) was “insoluble”, the solubility ([8]; in methanol) was “soluble” and the solubility ([8]; in n-hexane) was “insoluble”. The solubility ([8]; in petroleum ether) was “insoluble”, the solubility ([8]; in water) was “insoluble” and the MIC [9] was over 100 µg/mL. The IC50 [10] was 320 nM.
With `O=c1[nH]cnc2c1ncn2[C@H]1CC[C@@H](CO)O1` [ddI, 2',3'-Dideoxyinosine] the IC50 [11] was 1000 to 2000 nM and the cytotoxicity [12] was “very weak cytotoxicity”.
